Source: patent US11459327B1, “Cycloalkyl and hetero-cycloalkyl inhibitors, preparation methods therefor, and use thereof” (Suzhou Zelgen Biopharmaceuticals Co., Ltd., priority 2019, dated 2022)
pIC50: −log10 of the molar value.

What was measured:
[1] = Pharmacokinetics test evaluation in rats, plasma concentration by LC/MS/MS; type: in vivo; details: male SD rats, 15 mg/kg by gavage; for T1/2 / Tmax / AUC / Cmax: n = 4, mean; for AUC / Cmax: rat, plasma, po
Method: Male SD rats, with a body weight of about 220 g, were given 15 mg/kg solution of the compound of the invention or the control compound by gavage after overnight fasting [10% […] (captisol) and 50 mM sodium citrate (pH 5) as vehicle]. Blood samples were collected at 0.5, 1.0, 2.0, 4.0, 6.0, 8.0, 12.0 and 24 hours after the compound was administrated, and the concentrations of the compound or the control compound in plasma were determined by LC/MS/MS.
The plasma concentration-time curves of Examples 13 and 14 and control compounds were shown in FIG. 1, and the pharmacokinetics parameters were shown in Table 2: […]

[2] = test system: NCI-H358(KRAS^G12C mutation) cells; assay: Cell assay of antiproliferative activity (Celltiter-Glo, 5 days) against NCI-H358 cells; type: cell-based; details: 5 days incubation
How it was run: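 Cells plated overnight, then given a 10-point compound series (stock dilutions 50 μM to 0.003 μM, 100 nL added per well) and grown 5 days. Luminescence read after 10 min shaking at room temperature. IC50 from curve fitting.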

[3] = test system: A549(KRAS^G12S mutation) cells; assay: Cell assay of antiproliferative activity (Celltiter-Glo, 5 days) against A549 cells; type: cell-based; details: Homo sapiens, 120 h, 5 days incubation
Method: Cell assay of antiproliferative activity of compounds against NCI-H358(KRAS^G12C mutation) and A549(KRAS^G12S mutation) cells.
40 μl phosphate buffer was added to the outer wells of the 384 microplate, and 40 μl cell suspension to be tested was added to the other wells. Then the microplate was incubated in a carbon dioxide incubator overnight.
The compounds to be tested were gradiently diluted, each compound was performed 10 concentration gradients (diluted from 50 μM to 0.003 μM) and added 100 nL to the corresponding wells in the microplate. After addition, 40 μl of phosphate buffer was added to each well in rows A and P and columns 1 and 24, and then the microplate was incubated in a carbon dioxide incubator for 5 days.
20 μL of Promega Celltiter-Glo reagent was added to each well of the microplate, and then the luminescence signal was stabilized by oscillating at room temperature for 10 min. Then PekinElmer Envision multi-label analyzer was used to read.
Finally, GraphPad Prism software was used to calculate the IC50 value of the compound and the fitting curve was drawn.
Anti-proliferative activity of the compounds of the present invention against NCI-H358(KRAS^G12C mutation) and A549(KRAS^G12S mutation) cells were shown in Table 1.

NCI-H358 tumor cells = assay: Pharmacodynamic testing evaluation of anti-tumor activity (H358 CDX tumor model); type: in vivo; details: nude rats
Method: Pharmacodynamic Testing Evaluation of Anti-Tumor Activity (11358 CDX Tumor Model)
100 uL suspension containing 5×10^6 NCI-H358 tumor cells was subcutaneously injected into the right posterior back of nude rats. The health of the rat was monitored daily. Measurements were started when the tumor grew palpable.

MIA PaCa-2 tumor cells = details: MIA PaCa-2 CDX, nude rats
Method: Pharmacodynamic Testing Evaluation of Anti-Tumor Activity (MIA PaCa-2 CDX Tumor Model)
100 uL suspension containing 5×10^6 MIA PaCa-2 tumor cells was subcutaneously injected into the right posterior abdomen of nude rats. The health of the rat was monitored daily. Measurements were started when the tumor grew palpable. The tumor volume calculation formula was adopted: 0.5×L×W^2, where L and W represent tumor length and width, respectively. The tumor grew to ˜200 mm^3, the rats were randomly divided into groups. Rats were intragastrically administrated the corresponding dose (7.5 mg/Kg) of the compound's CMC-Na suspension every day, and their general status was monitored at the same time. The tumor was measured 3 times a week, and the weight was measured twice a week.

[4] = 30 mg/Kg intragastrically every day, Day 20
[5] = 7.5 mg/Kg intragastrically every day, Day 20

Row | SMILES | pIC50 ([2]; Homo sapiens, NCI-H358, 120 h) | pIC50 [3] | other results
1 | C=C(F)C(=O)N1CCN(c2nc(OC[C@@H]3CCCN3C)nc3c2CCN(c2cccc4cccc(Cl)c24)C3)CC1CC#N (stereo partly drawn) [Control compound, reference compound] | – | – | T1/2 [1]: 2.47 h; Tmax [1]: 4.0 h; AUC [1]: 830 ng·h/mL; Cmax [1]: 123 ng/mL
2 | C=C(F)C(=O)N1CCN(c2nc(OCC3(CN(C)C)CC3)nc3c2CCN(c2cccc4cccc(Cl)c24)C3)CC1CC#N (stereo not drawn) [Example 13] | 7.26 | 5.22 | T1/2 [1]: 2.33 h; Tmax [1]: 4.0 h; bioavailability ([1]; conclusion in words): excellent bioavailability; metabolic properties in rats compared with the control compound ([1]; higher Cmax and higher plasma exposure AUC): better metabolic properties in rats; AUC [1]: 1400 ng·h/mL; Cmax [1]: 163 ng/mL
3 | C=C(F)C(=O)N1CCN(c2nc(OCCN(C)C3CCC3)nc3c2CCN(c2cccc4ccc(F)c(Cl)c24)C3)CC1CC#N (stereo not drawn) [Example 14, 2-(4-(7-(8-chloro-7-fluoronaphthalen-1-yl)-2-(2-(cyclobutyl(methyl)amino)ethoxy)-5,6,7,8-tetrahydropyrido[3,4-d]pyrimidin-4-yl)-1-(2-fluoroacroloyl)piperazin-2-yl) acetonitrile] | 7.05 | 5.21 | T1/2 [1]: 1.69 h; Tmax [1]: 1.25 h; AUC [1]: 392 ng·h/mL; Cmax [1]: 85.1 ng/mL
4 | C=C(F)C(=O)N1CCN(c2nc(OCC3(CN(C)C)CC3)nc3c2CCN(c2cccc4cccc(Cl)c24)C3)C[C@@H]1CC#N [Example 27] | – | – | pIC50 [2]: 7.85; % TGI (NCI-H358 tumor cells; [4]): 89.8%; % Tumor Growth (NCI-H358 tumor cells; [4]): 182%; TV Day 0 (NCI-H358 tumor cells; Day 0 (at grouping), 30 mg/Kg intragastrically every day): 209 mm^3; TV Day 20 (NCI-H358 tumor cells; Day 20, 30 mg/Kg intragastrically every day): 471 mm^3; % TGI (MIA PaCa-2 tumor cells; [5]): 66.6%; % Tumor Growth (MIA PaCa-2 tumor cells; [5]): 145.4%; TV Day 0 (MIA PaCa-2 tumor cells; Day 0 (at grouping), 7.5 mg/Kg intragastrically every day): 197 mm^3; TV Day 20 (MIA PaCa-2 tumor cells; Day 20, 7.5 mg/Kg intragastrically every day): 518 mm^3
5 | C=CC(=O)N1CCN(c2nc(OC[C@H](C)N(C)C3CC3)nc3c2CCN(c2cccc4cccc(C)c24)C3)CC1CC#N (stereo partly drawn) [Example 71, 2-(1-acroloyl-4-(2-((S)-2-(cyclopropyl(methyl)amino)propoxy)-7-(8-methylnaphthalen-1-yl)-5,6,7,8-tetrahydropyrido[3,4-d]pyrimidin-4-yl)piperazin-2-yl) acetonitrile] | 6.82 | 4.94 | –
6 | C=CC(=O)N1CCN(c2nc(OC[C@@H](C)N(C)C3CC3)nc3c2CCN(c2cccc4cccc(C)c24)C3)CC1CC#N (stereo partly drawn) [Example 72, 2-(1-acroloyl-4-(2-((R)-2-(cyclopropyl(methyl)amino)propoxy)-7-(8-methylnaphthalen-1-yl)-5,6,7,8-tetrahydropyrido[3,4-d]pyrimidin-4-yl)piperazin-2-yl) acetonitrile] | 6.74 | 4.97 | –
7 | C=CC(=O)N1CCN(c2nc(OCCN(C)CC3CC3)nc3c2CCN(c2cccc4cccc(C)c24)C3)CC1CC#N (stereo not drawn) [Example 73] | 7.22 | 5.43 | –
8 | C=CC(=O)N1CCN(c2nc(OC[C@H](C)N(C)CC3CC3)nc3c2CCN(c2cccc4cccc(C)c24)C3)CC1CC#N (stereo partly drawn) [Example 74] | 7.10 | 5.59 | –
9 | C=CC(=O)N1CCN(c2nc(OC[C@@H](C)N(C)CC3CC3)nc3c2CCN(c2cccc4cccc(C)c24)C3)CC1CC#N (stereo partly drawn) [Example 75] | 7.05 | 5.55 | –
10 | C=CC(=O)N1CCN(c2nc(O[C@@H](C)CN(C)CC3CC3)nc3c2CCN(c2cccc4cccc(C)c24)C3)CC1CC#N (stereo partly drawn) [Example 76, 2-(1-acroloyl-4-(2-(((S)-1-((cyclopropylmethyl)(methyl)amino)propan-2-yl)oxy)-7-(8-methylnaphthalen-1-yl)-5,6,7,8-tetrahydropyrido[3,4-d]pyrimidin-4-yl)piperazin-2-yl) acetonitrile] | 6.07 | 5.46 | –
11 | C=CC(=O)N1CCN(c2nc(O[C@H](C)CN(C)CC3CC3)nc3c2CCN(c2cccc4cccc(C)c24)C3)CC1CC#N (stereo partly drawn) [Example 77, 2-(1-acroloyl-4-(2-(((R)-1-((cyclopropylmethyl)(methyl)amino)propan-2-yl)oxy)-7-(8-methylnaphthalen-1-yl)-5,6,7,8-tetrahydropyrido[3,4-d]pyrimidin-4-yl)piperazin-2-yl) acetonitrile] | 5.74 | 5.57 | –
12 | C=CC(=O)N1CCN(c2nc(OCCN(C)[C@@H](C)C3CC3)nc3c2CCN(c2cccc4cccc(C)c24)C3)CC1CC#N (stereo partly drawn) [Example 78] | 7.30 | 5.55 | –
13 | C=CC(=O)N1CCN(c2nc(OCCN(C)[C@H](C)C3CC3)nc3c2CCN(c2cccc4cccc(C)c24)C3)CC1CC#N (stereo partly drawn) [Example 79, 2-(1-acroloyl-4-(2-(2-(((R)-1-cyclopropylmethyl)(methyl)amino)ethoxy)-7-(8-methylnaphthalen-1-yl)-5,6,7,8-tetrahydropyrido[3,4-d]pyrimidin-4-yl)piperazin-2-yl) acetonitrile] | 7.40 | 5.51 | –
14 | C=CC(=O)N1CCN(c2nc(OCCN(C)C3CCC3)nc3c2CCN(c2cccc4cccc(C)c24)C3)CC1CC#N (stereo not drawn) [Example 81, 2-(1-acroloyl-4-(2-(2-((cyclobutyl)(methyl)amino)ethoxy)-7-(8-methylnaphthalen-1-yl)-5,6,7,8-tetrahydropyrido[3,4-d]pyrimidin-4-yl)piperazin-2-yl) acetonitrile] | 7.40 | 5.12 | –
15 | C=CC(=O)N1CCN(c2nc(OCCN(C)CC3CCC3)nc3c2CCN(c2cccc4cccc(C)c24)C3)CC1CC#N (stereo not drawn) [Example 82, 2-(1-acroloyl-4-(2-(2-((cyclobutylmethyl)(methyl)amino)ethoxy)-7-(8-methylnaphthalen-1-yl)-5,6,7,8-tetrahydropyrido[3,4-d]pyrimidin-4-yl)piperazin-2-yl) acetonitrile] | 6.80 | 5.18 | –
16 | C=CC(=O)N1CCN(c2nc(OCCOC3CC3)nc3c2CCN(c2cccc4cccc(C)c24)C3)CC1CC#N (stereo not drawn) [Example 93, 2-(1-acroloyl-4-(2-(2-cyclopropoxyethyoxy)-7-(8-methylnaphthalen-1-yl)-5,6,7,8-tetrahydropyrido[3,4-d]pyrimidin-4-yl)piperazin-2-yl) acetonitrile] | 6.51 | 5.11 | –
